Experimental data: ChEMBL document CHEMBL2163339, “Discovery of potent inhibitors of human and mouse fatty acid amide hydrolases” (J Med Chem, 2012)
The source made the active and inactive calls.

Tested on: Rattus norvegicus
Test: Analgesic activity in rat assessed as increase in paw withdrawal threshold at 50 mg/kg, po
Type: functional, organism-based
Parameters: dose 50 mg/kg

NC(=O)c1cccc(-c2cccc(OC(=O)NC3CCCCC3)c2)c1
Activity: inactive
